Experimental data as given in paper PMC6784244 (Toxins, 2019).
Converted amounts (≈) assume the structure as drawn. “And” between values parts separate entries of the source, which are not always exact repeats. Identical values can stand only once.

Experiments:
[1] = system: Nisin-resistant B. subtilis (DSMZ 347)
C. perfringens [2] = assay type: cell-based, Clostridium perfringens
C. perfringens [3] = assay type: cell-based, Clostridium perfringens; remark: listed apart in the source

SMILES	MIC, B. subtilis NR [1] [µM]	membrane depolarization at 100 µM (C. perfringens [2]) [%]	membrane depolarization at four times their MIC (C. perfringens [2]) [%]	membrane depolarization at their MIC (C. perfringens [2])	percentage of membrane permeabilization at 100 µM, 120 min (C. perfringens [3]) [%]	percentage of permeabilization at four times the MIC (C. perfringens [3]) [%]
CC(C)[C@H]1C(=O)O[C@H](C(C)C)C(=O)N(C)[C@@H](C(C)C)C(=O)O[C@H](C(C)C)C(=O)N(C)[C@@H](C(C)C)C(=O)O[C@H](C(C)C)C(=O)N1C [ENN B]	>100	44.9 ± 8.7	44.2 ±1.8	36.4 ± 3.8% and 30–40%	19.6 ± 7.9	
CC[C@H](C)[C@H]1C(=O)O[C@H](C(C)C)C(=O)N(C)[C@@H]([C@@H](C)CC)C(=O)O[C@H](C(C)C)C(=O)N(C)[C@@H](C(C)C)C(=O)O[C@H](C(C)C)C(=O)N1C [ENN A1]	25 (≈ 16.7 µg/mL)	97.4 ± 5.3	75.3 ± 2.0			
CC[C@H](C)[C@H]1C(=O)O[C@H](C(C)C)C(=O)N(C)[C@@H](C(C)C)C(=O)O[C@H](C(C)C)C(=O)N(C)[C@@H](C(C)C)C(=O)O[C@H](C(C)C)C(=O)N1C [ENN B1]	50 (≈ 32.7 µg/mL)	97.6 ± 9.1	68.0 ± 4.3	47.4 ± 4.6% and 30–40%		
CC[C@H](C)[C@H]1C(=O)O[C@H](C(C)C)C(=O)N(C)[C@@H]([C@@H](C)CC)C(=O)O[C@H](C(C)C)C(=O)N(C)[C@@H]([C@@H](C)CC)C(=O)O[C@H](C(C)C)C(=O)N1C [ENN A]	6.25 to 12.5	108.9 ± 7.3	80.8 ± 3.2		37.1 ± 6.7	7.2 ± 2.5
